Assay results reported in the CATMoS acute toxicity set (Mansouri et al. 2021).
Values joined by “and” are separate entries in the source; they are usually repeats but may differ in a detail not shown here. Equal values may be shown once.

Legend:
[1] = Nontoxic (NT; LD50>2,000mg/kg vs. all others); conditions: rat; in vivo; po
Description: (§1) […]The data set underlying the modeling effort for this project was initially compiled by NICEATM and U.S. EPA’s CCTE. Briefly, LD50 data were collected from rat acute oral systemic toxicity tests, including limit tests, ranges/confidence intervals, and discrete LD50 values. The full data set included 21,200 LD50 entries for 15,688 substances. […] Data were reviewed to ensure that LD50 values with obvious errors in the extracted data such as unit conversion errors (e.g., comma and decimal separator misplacements) were either fixed or removed. After this review, 16,209 LD50 values remained. Many of the chemicals represented had multiple LD50 entries, requiring that a single representative value per Chemical Abstracts Service Registry Number (CASRN) identifier be defined to facilitate modeling efforts. Based on ATWG feedback and to define the representative LD50 as a protective value while accounting for the distribution across multiple LD50s, the median of the lowest quartile was computed using only discrete LD50 values (omitting limit test data and range and confidence interval data). A detailed summary of the data compilation is available online on the NICEATM webpage dedicated to the collaborative modeling project (NTP 2020).
(§2) […][…] For categorical designations, limit test and range/confidence interval LD50 data were integrated wherever possible. As such, the number of chemicals with end point values/calls varies across the modeling end points (Table 3) based on whether chemicals had representative LD50 values and/or other data. If a chemical had both, the representative value was used to determine categorical calls rather than limit test data. Some data were useable only for certain end points and categories depending on the thresholds. For example, ranges that spanned multiple hazard categories were considered only for the binary (very toxic/nontoxic) end points and omitted from rendering a determination for hazard category assignment.
(§3) […]The final data set comprising 11,992 chemicals was split into training and evaluation sets […], respectively. This process was performed semirandomly by ordering chemicals based on the five end points (categorical and continuous LD50 values) and partitioning every fourth record into the evaluation set accordingly. This approach was taken to ensure an equivalent distribution of the LD50 values and the different hazard categories between the training and the evaluation sets without supervised sampling of the chemicals based on structures (Figure 1A). The sources of the chemical structures were also kept equivalent between the two sets, with chemical structures obtained from DSSTox, being the highest quality, representing over 75% of each set (Figure 1B).

rat acute oral toxicity = conditions: in vivo
[2] = GHS categories as the set defines them, by LD50: 1 up to 5, 2 up to 50, 3 up to 300, 4 up to 2000, 5 above 2000 mg/kg; conditions: rat; in vivo; po
EPA categories = conditions: rat; in vivo; po
Description: as §1, §2, §3

SMILES | LD50 (rat acute oral toxicity) | other results
COc1c(C)cnc(CCl)c1C | – | nontoxic [1]: FALSE (not_nontoxic)
CN(C)CCOCCOC(=O)NCC1(C)CC(NC(=O)OCCOCCN(C)C)CC(C)(C)C1 (stereo not given) | – | nontoxic [1]: FALSE (not_nontoxic)
Nc1ccc(S(=O)(=O)O)cc1 | 12300 mg/kg | GHS category [2]: 5
CN(C)C=CC(=O)c1cccnc1 | – | nontoxic [1]: FALSE (not_nontoxic)
Oc1ccccc1 | 317 mg/kg | GHS category [2]: 5
Nc1nc(N)nc(N)n1 | 3160 mg/kg | GHS category [2]: 5
CCN(CC)CC | 460 mg/kg | GHS category [2]: 5
NCCNCCNCCNCCN | 2100 mg/kg | GHS category [2]: 4
OCC(O)CO | 9080 mg/kg | GHS category [2]: 5
C1CCC2=NCCCN2CC1 | – | nontoxic [1]: FALSE (not_nontoxic)
CO[Si](C)(CN=C=O)OC | – | nontoxic [1]: FALSE (not_nontoxic)
C[Si](Cl)(Cl)CCCCl | – | nontoxic [1]: FALSE (not_nontoxic)
CN(C(=O)CCl)c1ccc([N+](=O)[O-])cc1 | – | nontoxic [1]: FALSE (not_nontoxic)
Cc1cc(C)c(O)c(C(C)(C)C)c1 | – | nontoxic [1]: FALSE (not_nontoxic)
COC1CCCC1 | – | nontoxic [1]: FALSE (not_nontoxic)
NC(N)=Nc1ccccc1 | – | EPA category (EPA categories): 3
Cc1ccc(C(C)(C)C)c(O)c1 | – | nontoxic [1]: FALSE (not_nontoxic)
c1ccc2[nH]nnc2c1 | 500 mg/kg | GHS category [2]: 4
CCC(C)c1cccc(C(C)CC)c1O (stereo not given) | – | nontoxic [1]: FALSE (not_nontoxic)
CCCCCCCCCCCCCCCC[Si](Cl)(Cl)Cl | – | nontoxic [1]: FALSE (not_nontoxic)
C=CN1CCCC1=O | 1020 mg/kg | GHS category [2]: 5
Cc1cccc(S(=O)(=O)O)c1C | – | EPA category (EPA categories): 3
O=C1c2ccccc2C(=O)N1[C@@H]1CCCNC1 | – | nontoxic [1]: FALSE (not_nontoxic)
CCOC(=O)C(C#N)=CN | – | nontoxic [1]: FALSE (not_nontoxic)
CCCCCCCC/C=C\CCCCCCCC(=O)O | 25000 mg/kg | GHS category [2]: 5
O=C1CCCCCN1 | 1200 mg/kg | GHS category [2]: 4

SMILES | LD50 (rat acute oral toxicity) | other results
CC(C)OC(=O)NP(N)(N)=O | – | nontoxic [1]: FALSE (not_nontoxic)
NC(N)=O | 8470 mg/kg | GHS category [2]: 5
CC1OC(=O)C(C)OC1=O (stereo not given) | 3540 mg/kg | GHS category [2]: 5
N[C@@H](CCC(=O)O)C(=O)O | 15800 mg/kg | GHS category [2]: 5
O=CC1=C(Cl)C(=CO)CCC1 | – | nontoxic [1]: FALSE (not_nontoxic)
CC12CC(N3CCOCC3)C(O)CC1CCC1C2CCC2(C)C(O)C(N3CCCC3)CC12 (stereo not given) | – | nontoxic [1]: FALSE (not_nontoxic)
O=S(=O)(O)c1cc(Nc2nc(Nc3ccccc3)nc(N(CCO)CCO)n2)ccc1/C=C/c1ccc(Nc2nc(Nc3ccccc3)nc(N(CCO)CCO)n2)cc1S(=O)(=O)O | 12100 mg/kg | GHS category [2]: 5
CC(=O)O | 1940 mg/kg | GHS category [2]: 5
CC(CC(C)(C)C)C[Si](Cl)(Cl)Cl (stereo not given) | – | nontoxic [1]: FALSE (not_nontoxic)
CCCCCCCC[N+](C)(CCCCCCCC)CCCCCCCC | – | nontoxic [1]: FALSE (not_nontoxic)
CC1(C(=O)Cl)CCCCC1 | – | nontoxic [1]: FALSE (not_nontoxic)
C=CCOC(=O)C(C)(C)O | – | nontoxic [1]: FALSE (not_nontoxic)
CCC[Si](Cl)(Cl)Cl | – | nontoxic [1]: FALSE (not_nontoxic)
C1CCSC1 | 1750 mg/kg | –
COC(=O)c1ccccc1C(=O)OC | 2860 mg/kg | –
C=CC=O | 11.1 mg/kg | –
CCCCOC(=O)c1ccccc1C(=O)OCCCC | 6300 mg/kg | –
CC(Oc1cc(Cl)c(Cl)cc1Cl)C(=O)O (stereo not given) | 650 mg/kg | –
COCCO | 2260 mg/kg | –
C=CC(C#N)OC(C)=O (stereo not given) | 31.6 mg/kg | –
CO[Si](C)(CCCCl)OC | – | nontoxic [1]: FALSE (not_nontoxic)
CCC(C)NC1CCC(CC2CCC(NC(C)CC)CC2)CC1 (stereo not given) | 266 mg/kg | –
CCCCOCCOC(=O)COc1ccc(Cl)cc1Cl | 831 mg/kg | –
OC(c1ccc(Cl)cc1)(c1ccc(Cl)cc1)C(Cl)(Cl)Cl | 575 mg/kg | –
CC(C)N(C(=O)COc1nnc(C(F)(F)F)s1)c1ccc(F)cc1 | 480 mg/kg | –
C/C(=N\C#N)N(C)Cc1ccc(Cl)nc1 | 146 mg/kg | –

SMILES | LD50 (rat acute oral toxicity) | other results
COCCOCCO | 5500 mg/kg | –
CCOc1ccc(NC(C)=O)cc1 | 1650 mg/kg | –
COC(=O)N(C(=O)N1CO[C@@]2(C(=O)OC)Cc3cc(Cl)ccc3C2=N1)c1ccc(OC(F)(F)F)cc1 | 268 mg/kg | –
Cc1ccc(S(N)(=O)=O)cc1 | 2330 mg/kg | –
Cc1ccc(N)cc1C | 810 mg/kg | –
Nc1ccc(O)c([N+](=O)[O-])c1 | 1470 mg/kg | –
NC1CCCCC1 | 11 mg/kg | –
CC(O)C#N (stereo not given) | 21 mg/kg | –
O=[N+]([O-])c1ccc(O)cc1 | 170 mg/kg | –
O=P(Oc1ccccc1)(Oc1ccccc1)Oc1ccccc1 | 3500 mg/kg | –
COP(=S)(Oc1cc(Cl)c(Br)cc1Cl)c1ccccc1 (stereo not given) | 19 mg/kg | –
CCC(=O)O | 2600 mg/kg | –
O=[N+]([O-])c1ccc(Cl)cc1 | 460 mg/kg | –
N#CN | 134 mg/kg | –
CCN(CC)c1nc(Nc2ccc(/C=C/c3ccc(Nc4nc(Nc5cc(S(=O)(=O)O)ccc5S(=O)(=O)O)nc(N(CC)CC)n4)cc3S(=O)(=O)O)c(S(=O)(=O)O)c2)nc(Nc2cc(S(=O)(=O)O)ccc2S(=O)(=O)O)n1 | 11300 mg/kg | –
Nc1ccc([N+](=O)[O-])cc1 | 750 mg/kg | –
CSSC | 290 mg/kg | –
Clc1cc2c(c(Cl)c1Cl)Oc1c(cc(Cl)c(Cl)c1Cl)O2 | 0.8 mg/kg | –
Cc1ccc(C)c(C)c1 | 3280 mg/kg | –
CCCC(C)C1(CC)C(=O)N=C(O)NC1=O (stereo not given) | 52 mg/kg and 118 mg/kg | –
CCCCOC(=O)COc1ccc(Cl)cc1Cl | 600 mg/kg | –
CN(C)C(CSC(N)=O)CSC(N)=O | 340 mg/kg | –
CCCCCCCCCCCCOS(=O)(=O)O | 977 mg/kg | –
CN | 80 mg/kg | –
C=CC(C)C#N (stereo not given) | 232 mg/kg | –
C=C(C)[C@H]1Cc2c(ccc3c2O[C@@H]2COc4cc(OC)c(OC)cc4[C@@H]2C3=O)O1 | 25 mg/kg | –

SMILES | LD50 (rat acute oral toxicity) | other results
CCOP(=S)(OCC)Oc1cc(C)nc(N(CC)CC)n1 | 140 mg/kg | –
OCCOCCOCCOCCO | 32700 mg/kg | –
O=C(NCc1cccnc1)Nc1ccc([N+](=O)[O-])cc1 | 4.75 mg/kg | –
CC(C)C#N | 50 mg/kg | –
OCc1ccco1 | 177 mg/kg | –
CCOC(=O)C(C)Oc1ccc(Oc2nc3ccc(Cl)cc3o2)cc1 (stereo not given) | 2360 mg/kg | –
COCCOCCOCCO | 11300 mg/kg | –
CCC[Si](OC)(OC)OC | 5170 mg/kg | –
Nc1ccncc1 | 14 mg/kg | –
CS(=O)(=O)Cl | 50 mg/kg | –
COP(=S)(OC)Oc1ccc([N+](=O)[O-])cc1Cl | 284 mg/kg | –
CC(C)C(C(=O)OC(C#N)c1cccc(Oc2ccccc2)c1)c1ccc(Cl)cc1 (stereo not given) | 135 mg/kg | –
CCNc1ccccc1 | 334 mg/kg | –
CC(C)(C)NCCOCCO | 1400 mg/kg | –
CC(C)N | 111 mg/kg | –
OCC(F)(F)F | 153 mg/kg | –
OCCNc1ccccc1 | 2230 mg/kg | –
CCC1CO1 (stereo not given) | 500 mg/kg | –
Cc1ncc2n1-c1ccc(Cl)cc1C(c1ccccc1F)=NC2 | 215 mg/kg | –
O=C1OC(=O)c2cccc3cccc1c23 | 9600 mg/kg | –
N#Cc1nn(-c2c(Cl)cc(C(F)(F)F)cc2Cl)c(N)c1S(=O)C(F)(F)F (stereo not given) | 92 mg/kg | –
ClCCCBr | 930 mg/kg | –
CC(O)CO (stereo not given) | 20000 mg/kg | –
CCC[C@@H]1C[C@@H](C(=O)N[C@@H]([C@H]2O[C@H](SC)[C@H](O)[C@@H](O)[C@H]2O)[C@@H](C)O)N(C)C1 | 1000 mg/kg | GHS category [2]: 5
CCCCOC(=O)CO | 4240 mg/kg | –
CCCCCCC=O | 3200 mg/kg | –

SMILES | LD50 (rat acute oral toxicity) | other results
CCC(C)C(C)C(C)CCc1ccc(O)cc1 (stereo not given) | 2100 mg/kg | –
C=CCCCC=CCOC | 4900 mg/kg | –
CO[Si](C)(OC)C1CCCCC1 | 2760 mg/kg | –
N#CCCC(Br)(C#N)CBr (stereo not given) | 515 mg/kg | –
CCC(=O)OCc1ccccc1 | 3300 mg/kg | –
Cc1ccc(S(=O)(=O)O)cc1 | 400 mg/kg | GHS category [2]: 5
Cc1ccc(C)c(OCCCC(C)(C)C(=O)O)c1 | 479 mg/kg | –
CCCCCO | 2200 mg/kg | –
O=C(O)c1ccc(C(=O)O)cc1 | 1960 mg/kg | –
O=[N+]([O-])c1ccc(Cl)c(Cl)c1 | 625 mg/kg | –
COc1ccc(C(c2ccc(OC)cc2)C(Cl)(Cl)Cl)cc1 | 1860 mg/kg | –
CCCOCC(C)O (stereo not given) | 2490 mg/kg | –
CC1OC(C)OC(C)OC(C)O1 (stereo not given) | 227 mg/kg | –
CCC(CC)Nc1c([N+](=O)[O-])cc(C)c(C)c1[N+](=O)[O-] | 1050 mg/kg | –
N#CCC#N | 14 mg/kg | –
CC[C@H]1OC(=O)C[C@@H](O)[C@H](C)[C@@H](O[C@@H]2O[C@H](C)[C@@H](O)[C@H](N(C)C)[C@H]2O)[C@@H](CCN2C[C@H](C)C[C@H](C)C2)C[C@@H](C)C(=O)C=CC(C)=C[C@@H]1CO[C@@H]1O[C@H](C)[C@@H](O)[C@@H](OC)[C@H]1OC | 800 mg/kg | –
C=COCCCl | 210 mg/kg | –
CCCCCCCC[Si](OCC)(OCC)OCC | 11500 mg/kg | –
CCC[N+](CCC)(CCC)CCC | 3300 mg/kg | –
O=C1CCC(=O)O1 | 1510 mg/kg | –
CN(C)CC/C=C1\c2ccccc2Sc2ccc(Cl)cc21 | 200 mg/kg | –
NCCCCCCN | 750 mg/kg | –
CCCSC(=O)N(CCC)CCC | 1200 mg/kg | –
CC(=O)OC(C)(C)C | 4100 mg/kg | –
